In patent US11654097B2, “Peptide having activities of skin whitening and uses thereof” (CAREGEN CO., LTD., priority 2019, dated 2023):

What was measured:
[1] = test system: mouse melanoma cell B16F10; assay: Inhibitory effect on melanin production in α-MSH-stimulated B16F10 cells; type: cell-based; settings: B16F10, 200 ng/ml α-MSH, peptide 10, 50, 100 or 200 μM, 72 hours, absorbance at 450 nm
Procedure: A mouse melanoma cell B16F10 was seeded in a 6-well plate at a density of 5×10^4 cells/well, followed by incubation for 16 hours. Thereafter, the culture medium was replaced by a medium supplemented with 2% serum, and then 200 ng/ml of α-melanocyte-stimulating hormones (α-MSH) was added thereto to stimulate melanin production, together with each peptide of an amino acid sequence of SEQ ID NO: 1, 2, or 3 at a concentration of 10 μM, 50 μM, 100 μM, or 200 μM, respectively, followed by incubation for 72 hours. Thereafter, the incubated cells were dissolved in 1 N NaOH, and absorbance at 450 nm was measured. Moreover, an untreated group (Con) was used as a control, and only an α-MSH-treated group as a negative control and a known skin-whitening agent Arbutin (200 μM, 500 μM) and an α-MSH-treated group as a positive control were used.

[2] = biological target: T1, tyrosinase (Mus musculus, UniProt P11344); assay: Inhibitory effect on tyrosinase activity in lysate of treated B16F10 cells (L-DOPA); type: cell-based; settings: B16F10, 200 ng/ml α-MSH, peptide 1-160 μM, 72 hours, absorbance at 475 nm
T1 construct: The cells were lysed by adding a 0.1 M sodium phosphate buffer (pH 6.8, lysis buffer) containing 1% triton X-100; endogenous in cells; host or cells: B16F10 mouse melanoma cells stimulated with alpha-MSH
T1 sequence (P11344 19-533): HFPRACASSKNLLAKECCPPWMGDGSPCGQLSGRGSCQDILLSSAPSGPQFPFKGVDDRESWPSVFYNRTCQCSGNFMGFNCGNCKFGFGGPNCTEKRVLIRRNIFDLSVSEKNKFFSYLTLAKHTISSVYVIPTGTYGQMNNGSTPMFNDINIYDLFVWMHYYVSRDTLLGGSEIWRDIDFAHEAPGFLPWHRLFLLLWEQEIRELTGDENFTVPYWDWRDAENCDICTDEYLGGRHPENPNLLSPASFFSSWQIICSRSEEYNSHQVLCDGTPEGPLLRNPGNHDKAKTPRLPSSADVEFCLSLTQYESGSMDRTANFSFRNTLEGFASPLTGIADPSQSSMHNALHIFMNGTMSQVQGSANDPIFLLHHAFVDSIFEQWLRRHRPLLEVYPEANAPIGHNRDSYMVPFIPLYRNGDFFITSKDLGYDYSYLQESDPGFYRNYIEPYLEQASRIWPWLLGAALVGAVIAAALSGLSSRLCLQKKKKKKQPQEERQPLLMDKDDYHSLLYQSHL
Procedure: A mouse melanoma cell B16F10 was seeded in a 6-well plate at a density of 5×10^4 cells/well, followed by incubation for 16 hours. Thereafter, the culture medium was replaced by a medium supplemented with 2% serum, and then 200 ng/ml of α-MSH was added thereto, together with each peptide of an amino acid sequence of SEQ ID NO: 1, 2, or 3 at a concentration of 1 μM, 10 μM, 20 μM, 40 μM, 60 μM, 80 μM or 160 μM, respectively, followed by incubation for 72 hours. The 6-well plate was placed on ice, and then washed with cold PBS. The cells were lysed by adding a 0.1 M sodium phosphate buffer (pH 6.8, lysis buffer) containing 1% triton X-100. Thereafter, the cells in the well plate were scraped, and collected in a 1.5 ml tube, followed by vortexing. Centrifugation was carried out at 15,000 rpm for 10 minutes to obtain a supernatant. Thereafter, proteins in the supernatant was quantified to adjust the protein content at a predetermined amount. A buffer was added thereto, and total 90 μl of the sample was dispensed in a 96-well plate.
Thereafter, 20 μL of 10 mM L-DOPA was added to each sample, and incubated at 37° C. for 1 hour. Then, absorbance at 475 nm was measured. In addition, an untreated group (Con) was used as a control, and only α-MSH-treated group as a negative control and Arbutin (200 μM or 500 μM) and α-MSH-treated group as a positive control were used.

[3] = test system: MITF; assay: Expression of melanin production-associated gene (RT-PCR) in B16F10 cells; type: cell-based, mouse; settings: B16F10, 200 ng/ml α-MSH, peptide 10-200 μM, 72 hours
Procedure: (§1) A mouse melanoma cell B16F10 was seeded in a 6-well plate at a density of 5×10^4 cells/well, followed by incubation for 16 hours. Thereafter, the culture medium was replaced by a medium supplemented with 2% serum, and then 200 ng/ml of α-MSH was added thereto, together with each peptide of an amino acid sequence of SEQ ID NO: 1, 2, or 3 at a concentration of 10 μM, 50 μM, 100 μM, or 200 μM, respectively, followed by incubation for 72 hours. mRNAs were extracted from the cultured cells, and the extracted mRNAs were reverse transcribed using a cDNA synthesis kit & PCR pre-mix (Intron, Korea), thereby synthesizing cDNA, respectively. Thereafter, a polymerase chain reaction (PCR) was carried out using each cDNA and Rab27a, Melanophilin (Mlph), myosin VA, MITF, Tyrosinase, and TRP1 primers. Moreover, a control, a negative control, and a positive control were used in the same manner as in Example 2, and nucleotide sequences of the primers used herein are the same as in Table 3 below.

[4] = test system: Mlph; assay: as above; type: cell-based, mouse; settings: B16F10, 200 ng/ml α-MSH, peptide 10-200 μM, 72 hours
Procedure: as §1

[5] = test system: tyrosinase; assay: as above; type: cell-based, mouse; settings: B16F10, 200 ng/ml α-MSH, peptide 10-200 μM, 72 hours
Procedure: as §1

[6] = test system: MITF; assay: Expression of melanin production-associated protein (Western blotting) in B16F10 cells; type: cell-based, mouse; settings: B16F10, 200 ng/ml α-MSH, peptide 10-200 μM, 72 hours
Procedure: (§2) A mouse melanoma cell B16F10 was seeded in a 6-well plate at a density of 5×10^4 cells/well, followed by incubation for 16 hours. Thereafter, the culture medium was replaced by a medium supplemented with 2% serum, and then 200 ng/ml of α-MSH was added thereto, together with each peptide of an amino acid sequence of SEQ ID NO: 1, 2, or 3 at a concentration of 10 μM, 50 μM, 100 μM, or 200 μM, respectively, followed by incubation for 72 hours. Thereafter, the cultured cells were lysed, and then subjected to Western blotting using antibodies (santacruz biotechnology, USA) against Mlph, Rab27a, Tyrosinase, MITF, and TRP-1. In addition, a control, a negative control, and a positive control were used in the same manner as in Example 2.

[7] = test system: TRP-1; assay: as above; type: cell-based, mouse; settings: B16F10, 200 ng/ml α-MSH, peptide 10-200 μM, 72 hours
Procedure: as §2

[8] = test system: tyrosinase; assay: as above; type: cell-based, mouse; settings: B16F10, 200 ng/ml α-MSH, peptide 10-200 μM, 72 hours
Procedure: as §2

[9] = test system: Rab27a; assay: Expression of melanin production-associated gene (RT-PCR) in B16F10 cells; type: cell-based, mouse; settings: B16F10, 200 ng/ml α-MSH, peptide 10-200 μM, 72 hours
Procedure: as §1

[10] = test system: TRP1; assay: as above; type: cell-based, mouse; settings: B16F10, 200 ng/ml α-MSH, peptide 10-200 μM, 72 hours
Procedure: as §1

[11] = test system: myosin VA; assay: as above; type: cell-based, mouse; settings: B16F10, 200 ng/ml α-MSH, peptide 10-200 μM, 72 hours
Procedure: as §1

[12] = test system: Mlph; assay: Expression of melanin production-associated protein (Western blotting) in B16F10 cells; type: cell-based, mouse; settings: B16F10, 200 ng/ml α-MSH, peptide 10-200 μM, 72 hours
Procedure: as §2

[13] = test system: Rab27a; assay: as above; type: cell-based, mouse; settings: B16F10, 200 ng/ml α-MSH, peptide 10-200 μM, 72 hours
Procedure: as §2

Substance | melanin production [1] | tyrosinase activity [2] | expression of MITF gene [3] | expression of Mlph gene [4] | expression of tyrosinase gene [5] | expression of MITF protein [6] | expression of TRP-1 protein [7] | expression of Tyrosinase protein [8] | expression of Rab27a gene [9] | expression of TRP1 gene [10] | expression of myosin VA gene [11] | expression of Mlph protein [12] | expression of Rab27a protein [13]
FHFIPNW [SEQ ID NO: 2] | reduced in a concentration-dependent manner | inhibited in a concentration-dependent manner | inhibited | inhibited | inhibited | inhibited | inhibited | inhibited | – | – | – | – | –
LRKRKRRFWVL [SEQ ID NO: 1] | reduced in a concentration-dependent manner | inhibited in a concentration-dependent manner | inhibited | – | inhibited | inhibited | – | inhibited | inhibited | inhibited | inhibited | inhibited | inhibited
WPFLRP [SEQ ID NO: 3] | reduced in a concentration-dependent manner | inhibited in a concentration-dependent manner | inhibited | inhibited | inhibited | inhibited | – | inhibited | inhibited | inhibited | inhibited | inhibited | inhibited
